In US20110191897A1, “Plants Tolerant to HPPD Inhibitor Herbicides” (Bayer CropScience AG, priority 2009, published 2011):
pIC50: −log10 of the molar value.

What was measured:
[1] = test system: rice shoots transformed with FMP37e; assay: Bleaching of transformed rice shoots on MS/2 with tembotrione; type: in vivo; conditions: 2 weeks
Method: Rice transformation is achieved using methods well known in the art. Briefly, the Agrobacterium tumefaciens mediated transformation of rice was performed using immature embryos, from the restorer line 6G4317. Briefly, panicles from donor plants were harvested 8-12 days after pollination. The lemma of the immature seed was removed. Seeds were thereafter sterilized using a NaOCl based solution and Tween. The seeds were preinduced with acetylsalicylic acid. Agrobacterium tumefaciens cells were then co-cultivated with the preinduced seeds in presence of acetosyringone for 4 days at 24° C. in the dark. Thereafter, coleoptile from embryos were removed and washed, then put on a media supplemented with phosphinothricin for 3 weeks at 28° C. under a photoperiod rhythm of 16 hours. Then the growing calli were cut off from the embryos, and transferred to fresh media containing triacillin, phosphinothricin, L-proline and copper (II) sulfate.
For each callusline and per Tembotrione concentration, 3 shoots, and randomly isolated from different callus pieces, were transferred to MS/2 with Tembotrione. As a general rule, transfer of the shoots from regeneration medium to MS/2 occurred 9 weeks after calli had been put on regeneration medium.
Cultures were incubated at 26.5° C. (16 hrs. photoperiod) and evaluation of symptoms occurred 2 weeks later.
New developing leaves of the shoots transferred have been scored on the basis of bleaching and categorized in 3 groups:
a) no bleaching b) intermediate bleaching c) complete bleaching
Within the category ‘intermediate bleaching’ a distinction has been made between shoots having new leaves showing only very little bleaching symptoms and thus tending to green leaves, and shoots with new leaves almost completely bleached.

[2] = test system: tobacco calli containing HPPD SEQ ID No. 7 (Blepharisma japonicum); assay: Rooting of transformed tobacco calli on tembotrione media; type: cell-based, Nicotiana tabacum; conditions: 6 to 12 weeks
Method: The leaf disks were co-cultivated for 2 days with Agrobacterium tumefaciens cells containing either the binary vector FMP37ebv or AtHPPDbv. Then the leaf disks were transferred to a media allowing the regeneration of shoots for 6 weeks on MS (Musharige and Skoog, (1962), Physiol Plant 15(3): 473-497) media supplemented with BAP (1 mg/mL; Benzylaminopurine), carbenicillin (250 mg/mL), cefotaxine (250 mg/mL), kanamycin (75 mg/mL) and tembotrione (10^−6 M)
Regenerated calli were transferred on media to induce the development of roots for 6 to 12 weeks: MS (½), supplemented with carbenicillin (250 mg/mL), cefotaxine (250 mg/mL), kanamycin (75 mg/mL), and tembotrione (10^−6 M).
Regenerated shoot calli from a cell transformed with a nucleic acid sequence encoding an HPPD comprising SEQ ID No. 11 (Arabidopsis thaliana) or SEQ ID No. 7 (Blepharisma japonicum) were transferred to a media inducing rot growth which media was further supplemented with the HPPD inhibitor tembotrione for 6 to 12 weeks.

[3] = test system: soybean events expressing the FMP37 HPPD protein; assay: Soybean greenhouse treatment with tembotrione; type: in vivo; conditions: 100 g Al/ha, eight events
Method: Plants containing the transgene were then sprayed with HPPD inhibitor herbicides, as for example with tembotrione at a rate of 100 g Al/ha. Ten days after the application the symptoms due to the application of the herbicide were evaluated and compared to the symptoms observed on a wild type plants under the same conditions.
Eight events expressing the FMP37 HPPD protein have been generated from the green shoots of above and were transferred to the greenhouse. Four weeks after acclimation, i.e. plants at a developmental stage of 3-4 internodes were treated with 100 g Al/ha tembotrione prepared from a WP 20 formulation supplemented with ammonium sulfate and methyl ester raps oil. Ten days after application, the symptoms caused by the application of the HPPD inhibitor herbicide were evaluated and compared to the symptoms observed on treated non-transgenic wild-type soybean plants.

[4] = test system: T0 tobacco plants expressing the FMP37 HPPD (FMP37t); assay: Greenhouse response of T0 tobacco plants to tembotrione; type: in vivo, Nicotiana tabacum; conditions: 100 g AI/ha, two weeks after treatment
Description: As an example, rooted plants containing the T-DNA PromCaMV35S-OTP-HIS6—FMP37t-TerCaMV35S, will be transferred to the greenhouse under standard growth conditions. Following a period of acclimation of two weeks, the T0 plants will be treated with a mixture containing 100 g tembotrione/ha prepared from a WP20 (wettable powder 20%) formulation supplemented with ammonium sulfate and methyl ester raps oil. Two weeks after the treatment, the symptoms due to the application of the herbicides will be evaluated. The plants are classified in four categories. The treated plants evaluated as “0” are looking like the untreated tobacco plants. The plants evaluated as “1” display temporary light bleaching phenotype due to the application of the herbicides. The plants evaluated as “2” display permanent light to strong bleaching symptoms. Finally the plants evaluated as “3” are looking like wild type tobacco plants submitted to the same treatment.

[5] = target: T1, Arabidopsis thaliana HPPD (SEQ ID No. 10) (Arabidopsis thaliana, UniProt P93836); assay: Spectrophotometric HPPD activity assay in presence of HPPD inhibitors; type: biochemical
T1 construct: made in house; host or cells: E. coli K-12 BL21 (pQE30-AtHPPD)
T1 sequence (P93836 with tags, fused parts or gaps): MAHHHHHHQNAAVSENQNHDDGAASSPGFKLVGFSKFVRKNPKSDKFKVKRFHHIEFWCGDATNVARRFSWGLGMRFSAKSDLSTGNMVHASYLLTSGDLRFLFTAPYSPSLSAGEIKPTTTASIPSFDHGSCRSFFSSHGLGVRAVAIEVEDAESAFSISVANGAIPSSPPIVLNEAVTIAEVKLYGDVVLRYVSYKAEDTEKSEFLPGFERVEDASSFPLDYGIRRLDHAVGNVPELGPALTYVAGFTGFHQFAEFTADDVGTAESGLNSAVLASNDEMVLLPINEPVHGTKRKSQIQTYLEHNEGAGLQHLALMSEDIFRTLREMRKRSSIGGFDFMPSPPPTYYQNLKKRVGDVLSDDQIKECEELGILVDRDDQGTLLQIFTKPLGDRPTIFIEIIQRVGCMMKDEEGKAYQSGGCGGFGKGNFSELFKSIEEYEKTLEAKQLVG

CS(=O)(=O)c1ccc(C(=O)C2C(=O)CCCC2=O)c(Cl)c1COCC(F)(F)F [Tembotrione, 2-[2-chloro-4-(methylsulfonyl)-3-[(2,2,2,-tri-fluoroethoxy)methyl]benzoyl]-1,3-cyclo-hexanedione]
N° of shoots completely bleached ([1]; 1 μM): 17 | N° of shoots with intermediate bleaching ([1]; 1 μM): 24 | N° of shoots completely bleached ([1]; 5 μM): 43 | N° of shoots with intermediate bleaching ([1]; 5 μM): 17 | % Elongation & rooting on 10^−6M tembotrione [2]: 65% | events with bleaching like non-transgenic wild-type soybean plant [3]: two events | events with local transitory bleaching symptoms, recovered completely 7 days after application [3]: One other event | events with transitory light bleaching symptoms, recovered 14 days after application [3]: One event | events without any bleaching phenotype ([3]; ten days after application): Four of the eight events | number of plants in category 0 (looking like the untreated tobacco plants) [4]: 6 | number of plants in category 2 (permanent light to strong bleaching) [4]: 13 | number of plants in category 3 (like treated wild type tobacco plants) [4]: 7 | pIC50 [5]: > 5.60 | % Inhibition ([5]; 1.0E−05 M): 97% | % Inhibition ([5]; 2.5E−04 M): 97% | % Inhibition ([5]; 2.5E−05 M): 93% | % Inhibition ([5]; 2.5E−06 M): 82% | % Inhibition ([5]; 5.0E−06 M): 90% | inhibition at 5 µM ([5]; 5.0 × 10^−6M inhibitor (Table 4), read-out: percentage of inhibition): 92% | % Inhibition ([5]; 6.3E−05 M): 97%
